From paper PMC8642446 (Acta Pharmaceutica Sinica. B, 2021) come the findings set out here.

The target of the test is T1, ICAT (inhibitor of β-catenin and T-cell factor; β-catenin-interacting protein 1) (Homo sapiens, UniProt Q9NSA3).
T1 sequence (Q9NSA3 1-81): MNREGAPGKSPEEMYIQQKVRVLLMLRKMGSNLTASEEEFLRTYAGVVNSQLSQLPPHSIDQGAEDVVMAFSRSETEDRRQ
Put plainly: MST with EGFP-ICAT in cell lysate. In kind it is binding.

As a reminder, the Kd is the constant that tells how readily two partners part at equilibrium. A higher Kd goes with a looser complex. As for `CC1=CC(=O)[C@@H](O)[C@]2(C)[C@H]3[C@@H](O)[C@H](O)[C@]4(C)OC[C@@]35[C@@H](C[C@@H]12)OC(=O)[C@H](O)[C@]54O` [BD, Bruceine D], the Kd was found to be 33.2 µM.
